# Experimental data: ChEMBL document CHEMBL1124557, “Pentadienyl carboxamide derivatives as antagonists of platelet-activating factor” (J Med Chem, 1989); call rule not given here
# Experiments:
# [1] = system: Cavia porcellus; assay: Ability to prevent PAF-induced bronchoconstriction in guinea pig when administered at a dose of 1 mg/kg intravenously; format: functional; settings: route intravenous
# [2] = molecular target: Platelet-activating factor receptor (Cavia porcellus) (UniProt P21556); assay: Ability to prevent PAF-induced bronchoconstriction in guinea pig when administered intravenously; format: functional
# [3] = molecular target: Platelet-activating factor receptor (Cavia porcellus) (UniProt P21556); assay: Ability to prevent PAF-induced bronchoconstriction in guinea pig 2 hr after administration (50 mg/kg perorally); format: functional, organism-based
# [4] = system: Cavia porcellus; assay: Inhibition of PAF-induced bronchoconstriction in guinea pig 2 hr after p.o. administration.; format: functional; settings: po, read-out: ID50 (the source's name)
# [5] = system: Platelet-activating factor receptor (Canis familiaris); assay: Compound was evaluated for inhibition of platelet activating factor binding activity in dog platelets using [3H]PAF as radioligand; NA means inactive
# [6] = system: Cavia porcellus; assay: Ability to prevent PAF-induced bronchoconstriction in guinea pig 6 hr following 50 mg/kg p.o. administration.; format: functional; settings: route oral
# [7] = system: Cavia porcellus; assay: Inhibitory activity against bronchoconstriction in guinea pig 2 hr after peroral administration of compound; format: functional; settings: Lung, po, read-out: ID50 (the source's name)
# [8] = system: Cavia porcellus; assay: Ability to prevent PAF-induced bronchoconstriction in guinea pig when administered dose 0.5 mg/kg intravenously; format: functional; settings: route intravenous
# Sequence of Platelet-activating factor receptor (Cavia porcellus) (P21556 whole entry): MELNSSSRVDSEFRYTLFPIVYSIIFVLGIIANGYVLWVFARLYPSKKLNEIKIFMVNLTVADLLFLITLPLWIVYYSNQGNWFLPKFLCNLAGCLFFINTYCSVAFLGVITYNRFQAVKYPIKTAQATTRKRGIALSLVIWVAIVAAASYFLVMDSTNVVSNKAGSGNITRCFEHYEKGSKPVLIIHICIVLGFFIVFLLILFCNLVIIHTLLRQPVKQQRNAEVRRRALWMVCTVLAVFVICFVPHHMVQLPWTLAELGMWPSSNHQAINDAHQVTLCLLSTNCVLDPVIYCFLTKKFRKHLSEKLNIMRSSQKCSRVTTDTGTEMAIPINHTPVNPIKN
Structure (SMILES),inhibition in vivo at 1 mg/kg [1] [%],ID50 [2] [mg/kg],inhibition [3] [%],ED50 [4] [mg/kg],IC50 [5],inhibition in vivo at 50 mg/kg [6] [%],ED50 [7] [mg/kg],inhibition in vivo at 0.5 mg/kg [8] [%]
COc1cccc(C(=C/C=C/C(=O)NCCCCc2cccnc2)c2cccc(OC)c2)c1,69,0.36,31,80,–,–,–,–
O=C(CC=C(c1ccccc1)c1ccccc1)NCCCCc1cccnc1,–,–,–,–,Not Active,–,–,–
COc1ccc(C(=C/C=C/C(=O)N[C@H](C)CCCc2cccnc2)c2ccc(OC)c(OC)c2)cc1OC,99,0.14,67,26,–,2,–,–
COc1ccc(/C(=C/C=C/C(=O)N[C@H](C)CCCc2cccnc2)C(C)C)cc1,89,0.41,71,30,–,20,–,–
COc1ccc(C(=C/C=C/C(=O)NCCCCc2cccnc2)c2ccc(OC)c(OC)c2)cc1OC,78,0.54,71,27,–,17,–,–
COc1cccc(C(=C/C=C/C(=O)N[C@@H](C)CCCc2cccnc2)c2cccc(OC)c2)c1,36,–,10,–,–,–,–,–
COc1ccc(/C(=C\C=C\C(=O)N[C@H](C)CCCc2cccnc2)C2CCCCC2)cc1,18,–,–,–,–,–,–,–
COc1cccc(C(=C/C=C/C(=O)N[C@H](C)CCCc2cccnc2)c2cccc(OC)c2)c1,88,0.21,86,29,–,12,–,–
O=C(/C=C/C=C(c1cccc(F)c1)c1cccc(F)c1)NCCCCc1cccnc1,71,0.34,37,–,–,–,50,–
COc1ccc(C(=C/C=C/C(=O)NC(C)CCCc2ccc(C)nc2)c2ccc(OC)cc2)cc1 (configuration not stated),5,–,–,–,–,–,–,–
COc1ccc(/C(=C/C=C/C(=O)N[C@H](C)CCCc2cccnc2)c2ccccc2)cc1,89,0.16,95,–,–,53,–,–
COc1ccc(C(=C/C=C/C(=O)NCCOCc2cccnc2)c2ccc(OC)cc2)cc1,48,–,–,–,–,–,–,–
O=C(/C=C/C=C(c1ccc(F)cc1)c1ccc(F)cc1)NCCCCc1cccnc1,91,0.38,89,–,–,–,28,–
COc1ccc(/C(C)=C/C=C/C(=O)N[C@H](C)CCCc2cccnc2)cc1,42,–,–,–,–,–,–,–
O=C(/C=C/C=C(c1ccc(Cl)cc1)c1ccc(Cl)cc1)NCCCCc1cccnc1,95,0.18,54,50,–,–,–,–
COc1ccc(C(=C/C=C/C(=O)Nc2ccc(Cc3cccnc3)cc2)c2ccc(OC)cc2)cc1,3,–,–,–,–,–,–,–
COc1ccc(C(=C/C=C/C(=O)N[C@@H](CCCc2cccnc2)C2CC2)c2ccc(OC)cc2)cc1,98,0.2,99,6,–,82,–,–
COc1ccc(C(=C/C=C/C(=O)N[C@@H](CCCc2cccnc2)C(C)C)c2ccc(OC)cc2)cc1,87,0.43,57,26,–,–,–,–
C[C@@H](CCCc1cccnc1)NC(=O)/C=C/C=C(c1ccc(F)cc1)c1ccc(F)cc1,21,–,–,–,–,–,–,–
CC[C@H](CCCc1cccnc1)NC(=O)/C=C/C=C(c1ccc(OC)cc1)c1ccc(OC)cc1,99,0.16,99,6,–,85,–,–
O=C(C=C(c1ccccc1)c1ccccc1)NCCCCc1cccnc1,–,0.58,28,–,–,–,–,66
CCC/C(=C\C=C\C(=O)N[C@H](C)CCCc1cccnc1)c1ccc(OC)cc1,86,0.52,9,–,–,–,–,–
C[C@@H](CCCc1cccnc1)NC(=O)/C=C/C=C(c1cccc(F)c1)c1cccc(F)c1,34,–,46,–,–,–,–,–
O=C(/C=C\C=C(c1ccccc1)c1ccccc1)NCCCCc1cccnc1,–,–,–,–,–,–,–,-1
COc1ccc(C(=C/C=C/C(=O)NCCCCc2cccnc2)c2ccc(OC)cc2)cc1,92,0.25,82,12,–,71,–,–
O=C(CCCCCC=C(c1ccccc1)c1ccccc1)NCCCCc1cccnc1,–,–,–,–,Not Active,–,–,–
CCC[C@H](CCCc1cccnc1)NC(=O)/C=C/C=C(c1ccc(OC)cc1)c1ccc(OC)cc1,24,–,–,–,–,–,–,–
CCCCCC(=C/C=C/C(=O)N[C@H](C)CCCc1cccnc1)CCCCC,78,0.64,4,–,–,–,–,–

Structure (SMILES),inhibition in vivo at 1 mg/kg [1] [%],ID50 [2] [mg/kg],inhibition [3] [%],ED50 [4] [mg/kg],IC50 [5],inhibition in vivo at 50 mg/kg [6] [%],ED50 [7] [mg/kg],inhibition in vivo at 0.5 mg/kg [8] [%]
C[C@H](CCCc1cccnc1)NC(=O)/C=C/C=C(c1ccc(F)cc1)c1ccc(F)cc1,70,0.31,53,–,–,–,–,–
COc1ccccc1C(=C/C=C/C(=O)NCCCCc1cccnc1)c1ccccc1OC,40,–,–,–,–,–,–,–
COc1ccc(C(=C/C=C/C(=O)N[C@@H](CCCc2cccnc2)C2CCCC2)c2ccc(OC)cc2)cc1,19,–,–,–,–,–,–,–
O=C(CCCC=C(c1ccccc1)c1ccccc1)NCCCCc1cccnc1,–,–,–,–,Not Active,–,–,–
CC[C@@H](CCCc1cccnc1)NC(=O)/C=C/C=C(c1ccc(OC)cc1)c1ccc(OC)cc1,44,–,–,–,–,–,–,–
COc1ccc(/C=C/C=C/C(=O)N[C@H](C)CCCc2cccnc2)cc1,-17,–,–,–,–,–,–,–
COc1ccc(C(=C/C=C/C(=O)Nc2ccc(-c3cccnc3)cc2)c2ccc(OC)cc2)cc1,97,0.15,82,29,–,77,–,–
CCCCCCCC/C(=C\C=C\C(=O)N[C@H](C)CCCc1cccnc1)c1ccc(OC)cc1,98,0.1,84,13,–,27,–,–
O=C(/C=C/C=C(c1cccc([N+](=O)[O-])c1)c1cccc([N+](=O)[O-])c1)NCCCCc1cccnc1,78,0.26,–,–,–,–,–,–
COc1ccc(C(=C/C=C/C(=O)NC(C)CCCc2cccnc2C)c2ccc(OC)cc2)cc1 (configuration not stated),47,1.1,–,–,–,–,–,–
COc1ccc(/C(=C\C=C\C(=O)N[C@H](C)CCCc2cccnc2)c2ccccc2)cc1,74,0.5,0,–,–,–,–,–
O=C(CCCCC=C(c1ccccc1)c1ccccc1)NCCCCc1cccnc1,–,–,–,–,–,–,–,15
C[C@H](CCCc1cccnc1)NC(=O)/C=C/C=C(c1cccc(F)c1)c1cccc(F)c1,73,0.22,91,37,–,87,–,–
COc1ccc(/C(=C/C=C/C(=O)N[C@H](C)CCCc2cccnc2)C2CCCCC2)cc1,73,0.21,97,10,–,12,–,–
COc1cccc(/C(=C/C=C/C(=O)NCCCCc2cccnc2)c2cccc(F)c2)c1,90,0.25,1,–,–,–,–,–
COc1ccc(C(=C/C=C/C(=O)N[C@@H](C)CCCc2cccnc2)c2ccc(OC)cc2)cc1,59,0.84,90,29,–,56,–,–
CCCCC/C(=C/C=C/C(=O)N[C@H](C)CCCc1cccnc1)c1ccc(OC)cc1,57,0.78,13,–,–,–,–,–
COc1ccc(C(=C/C=C/C(=O)NC(C)(C)CCCc2cccnc2)c2ccc(OC)cc2)cc1,97,0.27,54,55,–,–,–,–
COc1ccc(C(=C/C=C/C(=O)NCCCOc2cccnc2)c2ccc(OC)cc2)cc1,43,–,–,–,–,–,–,–
O=C(CCC=C(c1ccccc1)c1ccccc1)NCCCCc1cccnc1,–,–,–,–,–,–,–,21
CCCC[C@H](CCCc1cccnc1)NC(=O)/C=C/C=C(c1ccc(OC)cc1)c1ccc(OC)cc1,42,–,–,–,–,–,–,–
O=C(/C=C/C=C(c1cccc(Cl)c1)c1cccc(Cl)c1)NCCCCc1cccnc1,76,0.47,23,–,–,–,–,–
COc1cccc(/C(=C\C=C\C(=O)NCCCCc2cccnc2)c2cccc(F)c2)c1,88,0.46,25,–,–,–,–,–
CC/C(=C\C=C\C(=O)N[C@H](C)CCCc1cccnc1)c1ccc(OC)cc1,72,0.68,84,35,–,9,–,–
CCCC/C(=C\C=C\C(=O)N[C@H](C)CCCc1cccnc1)c1ccc(OC)cc1,99,0.68,98,12,–,69,–,–
Cc1ccc(C(=C/C=C/C(=O)N[C@H](C)CCCc2cccnc2)c2ccc(C)cc2)cc1,97,0.3,91,18,–,14,–,–
Cc1ccc(C(=C/C=C/C(=O)NCCCCc2cccnc2)c2ccc(C)cc2)cc1,95,0.26,67,43,–,11,–,–
